# Measurements taken from ChEMBL document CHEMBL4004849, “Tetrazolylmethyl quinolines: Design, docking studies, synthesis, anticancer and antifungal analyses” (2017).
# Calls of active or inactive are those of the source. The rule behind the calls is not given here.
# Legend:
# Type in all cases: functional
# NCI-H460 = experiment: Growth inhibition of human NCI-H460 cells at 10^-5 M incubated for 48 hrs by sulforhodamine B assay relative to control
# OVCAR-4 = experiment: Growth inhibition of human OVCAR4 cells at 10^-5 M incubated for 48 hrs by sulforhodamine B assay relative to control
# Aspergillus fumigatus [1] = experiment: Antifungal activity against Aspergillus fumigatus after 24 hrs by serial dilution method
# Candida albicans [2] = experiment: Antifungal activity against Candida albicans after 24 hrs by serial dilution method
# OVCAR-5 = experiment: Growth inhibition of human OVCAR5 cells at 10^-5 M incubated for 48 hrs by sulforhodamine B assay relative to control
# SK-MEL-5 = experiment: Growth inhibition of human SK-MEL-5 cells at 10^-5 M incubated for 48 hrs by sulforhodamine B assay relative to control
# U-251 = experiment: Growth inhibition of human U251 cells at 10^-5 M incubated for 48 hrs by sulforhodamine B assay relative to control
# EKVX = experiment: Growth inhibition of human EKVX cells at 10^-5 M incubated for 48 hrs by sulforhodamine B assay relative to control
# OVCAR-3 = experiment: Growth inhibition of human OVCAR3 cells at 10^-5 M incubated for 48 hrs by sulforhodamine B assay relative to control
# MCF7 = experiment: Growth inhibition of human MCF7 cells at 10^-5 M incubated for 48 hrs by sulforhodamine B assay relative to control
# SNB-19 = experiment: Growth inhibition of human SNB19 cells at 10^-5 M incubated for 48 hrs by sulforhodamine B assay relative to control
# Aspergillus fumigatus [3] = experiment: Antifungal activity against Aspergillus fumigatus at 100 ug/ml by disc diffusion method; settings: read-out: IZ
# NCI-H226 = experiment: Growth inhibition of human NCI-H226 cells at 10^-5 M incubated for 48 hrs by sulforhodamine B assay relative to control
# M14 = experiment: Growth inhibition of human M14 cells at 10^-5 M incubated for 48 hrs by sulforhodamine B assay relative to control
# Candida albicans [4] = experiment: Antifungal activity against Candida albicans at 100 ug/ml by disc diffusion method; settings: read-out: IZ
# 786-0 = experiment: Growth inhibition of human 786-0 cells at 10^-5 M incubated for 48 hrs by sulforhodamine B assay relative to control
# SK-OV-3 = experiment: Growth inhibition of human SKOV3 cells at 10^-5 M incubated for 48 hrs by sulforhodamine B assay relative to control
# IGROV-1 = experiment: Growth inhibition of human IGROV1 cells at 10^-5 M incubated for 48 hrs by sulforhodamine B assay relative to control
# MDA-MB-435 = experiment: Growth inhibition of human MDA-MB-435 cells at 10^-5 M incubated for 48 hrs by sulforhodamine B assay relative to control
# SF-295 = experiment: Growth inhibition of human SF295 cells at 10^-5 M incubated for 48 hrs by sulforhodamine B assay relative to control
# SR = experiment: Growth inhibition of human SR cells at 10^-5 M incubated for 48 hrs by sulforhodamine B assay relative to control
# UACC-62 = experiment: Growth inhibition of human UACC62 cells at 10^-5 M incubated for 48 hrs by sulforhodamine B assay relative to control
# K562 = experiment: Growth inhibition of human K562 cells at 10^-5 M incubated for 48 hrs by sulforhodamine B assay relative to control
# MDA-MB-231 = experiment: Growth inhibition of human MDA-MB-231/ATCC cells at 10^-5 M incubated for 48 hrs by sulforhodamine B assay relative to control
# RXF 393 = experiment: Growth inhibition of human RXF393 cells at 10^-5 M incubated for 48 hrs by sulforhodamine B assay relative to control
# NCI-H23 = experiment: Growth inhibition of human NCI-H23 cells at 10^-5 M incubated for 48 hrs by sulforhodamine B assay relative to control
# OVCAR-8 = experiment: Growth inhibition of human OVCAR8 cells at 10^-5 M incubated for 48 hrs by sulforhodamine B assay relative to control
# HCC 2998 = experiment: Growth inhibition of human HCC2998 cells at 10^-5 M incubated for 48 hrs by sulforhodamine B assay relative to control
# ACHN = experiment: Growth inhibition of human ACHN cells at 10^-5 M incubated for 48 hrs by sulforhodamine B assay relative to control
# HCT-15 = experiment: Growth inhibition of human HCT15 cells at 10^-5 M incubated for 48 hrs by sulforhodamine B assay relative to control
# MDA-MB-468 = experiment: Growth inhibition of human MDA-MB-468 cells at 10^-5 M incubated for 48 hrs by sulforhodamine B assay relative to control
# HCT-116 = experiment: Growth inhibition of human HCT116 cells at 10^-5 M incubated for 48 hrs by sulforhodamine B assay relative to control
# NCI-H522 = experiment: Growth inhibition of human NCI-H522 cells at 10^-5 M incubated for 48 hrs by sulforhodamine B assay relative to control
# UACC-257 = experiment: Growth inhibition of human UACC257 cells at 10^-5 M incubated for 48 hrs by sulforhodamine B assay relative to control
# LOX IMVI = experiment: Growth inhibition of human LOXIMVI cells at 10^-5 M incubated for 48 hrs by sulforhodamine B assay relative to control
# BT-549 = experiment: Growth inhibition of human BT549 cells at 10^-5 M incubated for 48 hrs by sulforhodamine B assay relative to control
# SK-MEL-28 = experiment: Growth inhibition of human SK-MEL-28 cells at 10^-5 M incubated for 48 hrs by sulforhodamine B assay relative to control
# Malme-3M = experiment: Growth inhibition of human MALME-3M cells at 10^-5 M incubated for 48 hrs by sulforhodamine B assay relative to control
# UO-31 = experiment: Growth inhibition of human UO31 cells at 10^-5 M incubated for 48 hrs by sulforhodamine B assay relative to control
# HL-60(TB) = experiment: Growth inhibition of human HL-60(TB) cells at 10^-5 M incubated for 48 hrs by sulforhodamine B assay relative to control
# KM12 = experiment: Growth inhibition of human KM12 cells at 10^-5 M incubated for 48 hrs by sulforhodamine B assay relative to control
# SN12C = experiment: Growth inhibition of human SN12C cells at 10^-5 M incubated for 48 hrs by sulforhodamine B assay relative to control
# SK-MEL-2 = experiment: Growth inhibition of human SK-MEL-2 cells at 10^-5 M incubated for 48 hrs by sulforhodamine B assay relative to control
# A549 = experiment: Growth inhibition of human A549/ATCC cells at 10^-5 M incubated for 48 hrs by sulforhodamine B assay relative to control
# MOLT-4 = experiment: Growth inhibition of human MOLT4 cells at 10^-5 M incubated for 48 hrs by sulforhodamine B assay relative to control
smiles,measurement,setting,value
Clc1nc2ccc(Br)cc2cc1Cn1nnnc1Cc1ccccc1,growth inhibition (GI),NCI-H460,Active
same,growth inhibition (GI),OVCAR-4,Active
same,MIC,Aspergillus fumigatus [1],10 µg/mL
same,MIC,Candida albicans [2],10 µg/mL
same,growth inhibition (GI),OVCAR-5,Active
same,growth inhibition (GI),SK-MEL-5,Active
same,growth inhibition (GI),U-251,Active
same,growth inhibition (GI),EKVX,Active
same,growth inhibition (GI),OVCAR-3,Active
same,growth inhibition (GI),MCF7,Active
same,growth inhibition (GI),SNB-19,Active
same,zone of inhibition at 100 µg/mL,Aspergillus fumigatus [3],13 mm
same,growth inhibition (GI),NCI-H226,Active
same,growth inhibition (GI),M14,Active
same,zone of inhibition at 100 µg/mL,Candida albicans [4],16 mm
same,growth inhibition (GI),786-0,Active
same,growth inhibition (GI),SK-OV-3,Active
same,growth inhibition (GI),IGROV-1,Active
same,growth inhibition (GI),MDA-MB-435,Active
same,growth inhibition (GI),SF-295,Active
same,growth inhibition (GI),SR,Active
same,growth inhibition (GI),UACC-62,Active
same,growth inhibition (GI),K562,Active
same,growth inhibition (GI),MDA-MB-231,Active
same,growth inhibition (GI),RXF 393,Active
same,growth inhibition (GI),NCI-H23,Active
same,growth inhibition (GI),OVCAR-8,Active
same,growth inhibition (GI),HCC 2998,Active
same,growth inhibition (GI),ACHN,Active
same,growth inhibition (GI),HCT-15,Active
same,growth inhibition (GI),MDA-MB-468,Active
same,growth inhibition (GI),HCT-116,Active
same,growth inhibition (GI),NCI-H522,Active
same,growth inhibition (GI),UACC-257,Active
same,growth inhibition (GI),LOX IMVI,Active
same,growth inhibition (GI),BT-549,Active
same,growth inhibition (GI),SK-MEL-28,Active
same,growth inhibition (GI),Malme-3M,Active
same,growth inhibition (GI),UO-31,Active
same,growth inhibition (GI),HL-60(TB),Active
same,growth inhibition (GI),KM12,Active
same,growth inhibition (GI),SN12C,Active
same,growth inhibition (GI),SK-MEL-2,Active
same,growth inhibition (GI),A549,Active
same,growth inhibition (GI),MOLT-4,Active
Clc1nc2ccc(Br)cc2cc1Cn1nnc(Cc2ccccc2)n1,growth inhibition (GI),NCI-H460,Active
same,growth inhibition (GI),OVCAR-4,Active
same,MIC,Aspergillus fumigatus [1],10 µg/mL
same,MIC,Candida albicans [2],10 µg/mL
same,growth inhibition (GI),OVCAR-5,Active
same,growth inhibition (GI),SK-MEL-5,Active
same,growth inhibition (GI),U-251,Active
same,growth inhibition (GI),EKVX,Active
same,growth inhibition (GI),OVCAR-3,Active
same,growth inhibition (GI),MCF7,Active
same,growth inhibition (GI),SNB-19,Active
same,zone of inhibition at 100 µg/mL,Aspergillus fumigatus [3],13 mm
same,growth inhibition (GI),NCI-H226,Active
same,growth inhibition (GI),M14,Active
same,zone of inhibition at 100 µg/mL,Candida albicans [4],10 mm
same,growth inhibition (GI),786-0,Active
same,growth inhibition (GI),SK-OV-3,Active
same,growth inhibition (GI),IGROV-1,Active
same,growth inhibition (GI),MDA-MB-435,Active
same,growth inhibition (GI),SF-295,Active
same,growth inhibition (GI),SR,Active
same,growth inhibition (GI),UACC-62,Active
same,growth inhibition (GI),K562,Active
same,growth inhibition (GI),MDA-MB-231,Active
same,growth inhibition (GI),RXF 393,Active
same,growth inhibition (GI),NCI-H23,Active
same,growth inhibition (GI),OVCAR-8,Active
same,growth inhibition (GI),HCC 2998,Active
same,growth inhibition (GI),ACHN,Active
same,growth inhibition (GI),HCT-15,Active
same,growth inhibition (GI),MDA-MB-468,Active
same,growth inhibition (GI),HCT-116,Active
same,growth inhibition (GI),NCI-H522,Active
same,growth inhibition (GI),UACC-257,Active
same,growth inhibition (GI),LOX IMVI,Active
same,growth inhibition (GI),BT-549,Active
same,growth inhibition (GI),SK-MEL-28,Active
same,growth inhibition (GI),Malme-3M,Active
same,growth inhibition (GI),UO-31,Active
same,growth inhibition (GI),HL-60(TB),Active
same,growth inhibition (GI),KM12,Active
same,growth inhibition (GI),SN12C,Active
same,growth inhibition (GI),SK-MEL-2,Active
same,growth inhibition (GI),A549,Active
same,growth inhibition (GI),MOLT-4,Active
COc1ccc2nc(Cl)c(Cn3nnnc3Cc3ccccc3)cc2c1,growth inhibition (GI),NCI-H460,Active
same,growth inhibition (GI),OVCAR-4,Active
same,MIC,Aspergillus fumigatus [1],25 µg/mL
same,MIC,Candida albicans [2],25 µg/mL
same,growth inhibition (GI),OVCAR-5,Active
same,growth inhibition (GI),SK-MEL-5,Active
same,growth inhibition (GI),U-251,Active
same,growth inhibition (GI),EKVX,Active
same,growth inhibition (GI),OVCAR-3,Active
same,growth inhibition (GI),MCF7,Active
same,growth inhibition (GI),SNB-19,Active
same,zone of inhibition at 100 µg/mL,Aspergillus fumigatus [3],20 mm
same,growth inhibition (GI),NCI-H226,Active
same,growth inhibition (GI),M14,Active
same,zone of inhibition at 100 µg/mL,Candida albicans [4],15 mm
same,growth inhibition (GI),786-0,Active
same,growth inhibition (GI),SK-OV-3,Active
same,growth inhibition (GI),IGROV-1,Active
same,growth inhibition (GI),MDA-MB-435,Active
same,growth inhibition (GI),SF-295,Active
same,growth inhibition (GI),SR,Active
same,growth inhibition (GI),UACC-62,Active
same,growth inhibition (GI),K562,Active
same,growth inhibition (GI),MDA-MB-231,Active
same,growth inhibition (GI),RXF 393,Active
same,growth inhibition (GI),NCI-H23,Active
same,growth inhibition (GI),OVCAR-8,Active
same,growth inhibition (GI),HCC 2998,Active
same,growth inhibition (GI),ACHN,Active
same,growth inhibition (GI),HCT-15,Active
same,growth inhibition (GI),MDA-MB-468,Active
same,growth inhibition (GI),HCT-116,Active
same,growth inhibition (GI),NCI-H522,Active
same,growth inhibition (GI),UACC-257,Active
same,growth inhibition (GI),LOX IMVI,Active
same,growth inhibition (GI),BT-549,Active
same,growth inhibition (GI),SK-MEL-28,Active
same,growth inhibition (GI),Malme-3M,Active
same,growth inhibition (GI),UO-31,Active
same,growth inhibition (GI),HL-60(TB),Active
same,growth inhibition (GI),KM12,Active
same,growth inhibition (GI),SN12C,Active
same,growth inhibition (GI),SK-MEL-2,Active
same,growth inhibition (GI),A549,Active
same,growth inhibition (GI),MOLT-4,Active
